Here are results for 18 compounds from patent US20180265515A1 (Genentech, Inc., priority 2015, published 2018).

In assay [1] the target is T1, isolated recombinant JAK1 kinase domain (Homo sapiens, UniProt P23458).
T1 construct: The activity of the isolated recombinant JAK1 and JAK2 kinase domain was measured
The assay can be described thus: JAK1 enzyme assay (Caliper LabChip, Ki). Type of assay: biochemical. As to conditions: recombinant JAK1 kinase domain, 25 μM ATP. The method, boiled down:
(§1)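 Caliper LabChip read-out: fraction of FAM-labeled JAK3-derived peptide converted to phosphopeptide by isolated JAK1/JAK2 kinase domain. Reaction 30 min, 22° C; stopped with EDTA, 50 mM final. Ki via Morrison tight-binding model, Ki=Ki,app/(1+[ATP]/Km,app).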

Assay [2] concerns the target T2, isolated recombinant JAK2 kinase domain (Homo sapiens, UniProt O60674).
T2 construct: The activity of the isolated recombinant JAK1 and JAK2 kinase domain was measured
Nature of the assay: JAK2 enzyme assay (Caliper LabChip, Ki). Type of assay: biochemical. As to conditions: 25 μM ATP. Summed up: as §1

For assay [3], the system named is JAK1-dependent STAT6 phosphorylation downstream of IL-13 stimulation in BEAS-2B human bronchial epithelial cells. The assay can be described thus: JAK1 pathway assay in BEAS-2B cells (IL-13 stimulated STAT6 phosphorylation, MSD). Type of assay: cell-based. As to conditions: read-out: P-STAT6 BEAS2B + IL13 IC50. Summed up: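 BEAS-2B human bronchial epithelial cells, plated the day before in complete growth medium, were preincubated with compound for 1 hr at 37° C (0.2% DMSO final), then stimulated with IL-13 at its EC90 for 15 min. STAT6 phosphorylation in lysates was read by MSD; EC50 was taken as 50% inhibition versus DMSO control.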

pIC50, pKi: −log10 of the molar value.

T2 sequence (O60674 849-1124 limits assumed): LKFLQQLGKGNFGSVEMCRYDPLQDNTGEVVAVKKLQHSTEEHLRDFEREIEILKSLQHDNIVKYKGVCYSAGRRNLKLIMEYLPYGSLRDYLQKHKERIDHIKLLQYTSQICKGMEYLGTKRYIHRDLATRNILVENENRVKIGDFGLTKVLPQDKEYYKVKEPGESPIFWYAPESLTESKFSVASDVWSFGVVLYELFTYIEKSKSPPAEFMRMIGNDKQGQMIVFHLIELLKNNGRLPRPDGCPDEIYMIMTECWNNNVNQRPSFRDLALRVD
T1 sequence (P23458 875-1153 limits assumed): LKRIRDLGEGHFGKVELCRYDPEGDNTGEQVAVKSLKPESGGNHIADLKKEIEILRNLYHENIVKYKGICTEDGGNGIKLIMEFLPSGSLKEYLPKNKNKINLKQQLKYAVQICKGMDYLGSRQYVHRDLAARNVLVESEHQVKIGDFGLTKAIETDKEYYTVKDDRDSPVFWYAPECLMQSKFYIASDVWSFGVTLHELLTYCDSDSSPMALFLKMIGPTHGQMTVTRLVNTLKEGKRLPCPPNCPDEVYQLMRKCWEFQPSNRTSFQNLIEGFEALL

By pKi is commonly meant the negative decadic logarithm of the Ki, by convention in mol/L. What is called pIC50 is the IC50 on a negative log10 scale, so that one unit is a factor of ten. With `CC(C)Sc1ccc(OC(F)F)c(-c2nn(CC(=O)N3CCC(N4CCO[C@@H](CO)C4)CC3)cc2NC(=O)c2cnn3cccnc23)c1` [Example 155, N-[3-[2-(difluoromethoxy)-5-isopropylsulfanyl-phenyl]-1-[2-[4-[(2R)-2-(hydroxymethyl)morpholin-4-yl]-1-piperidyl]-2-oxo-ethyl]pyrazol-4-yl]pyrazolo[1,5-a]pyrimidine-3-carboxamide], the values for the negative logarithm of the Ki (pKi) in assay [1] and in assay [2] were 9.51 and 9.00, respectively. Besides, the pIC50 in assay [3] is 7.32.
In the same order, the values of `CC(C)Sc1ccc(OC(F)F)c(-c2nn(Cc3cn(C4CCN(C5CCOC5)CC4)nn3)cc2NC(=O)c2cnn3cccnc23)c1` (stereo not drawn) [Example 156, N-[3-[2-(difluoromethoxy)-5-(propan-2-ylsulfanyl)phenyl]-1-([1-[1-(oxolan-3-yl)piperidin-4-yl]-1H-1,2,3-triazol-4-yl]methyl)-1H-pyrazol-4-yl]pyrazolo[1,5-a]pyrimidine-3-carboxamide] are 9.44, 9.54 and 7.68.
Take `CC(=O)N1CCN(CC2CCN(C(=O)Cn3cc(NC(=O)c4cnn5cccnc45)c(-c4cc(SC(C)C)ccc4OC(F)F)n3)CC2)CC1` [Example 157, N-[1-[2-[4-[(4-acetylpiperazin-1-yl)methyl]-1-piperidyl]-2-oxo-ethyl]-3-[2-(difluoromethoxy)-5-isopropylsulfanyl-phenyl]pyrazol-4-yl]pyrazolo[1,5-a]pyrimidine-3-carboxamide]: the pKi in assay [1] was 9.57; in assay [2] it was 9.11. Besides, in assay [3], the pIC50 was 7.33.
In the same order, the values of `CC(C)Sc1ccc(OC(F)F)c(-c2nn(CC(=O)N3CCC(N4CCOC[C@@H]4CO)CC3)cc2NC(=O)c2cnn3cccnc23)c1` [Example 158, N-[3-[2-(difluoromethoxy)-5-isopropylsulfanyl-phenyl]-1-[2-[4-[(3S)-3-(hydroxymethyl)morpholin-4-yl]-1-piperidyl]-2-oxo-ethyl]pyrazol-4-yl]pyrazolo[1,5-a]pyrimidine-3-carboxamide] are 9.23, 9.00 and 7.04.
For the compound `Cn1cc(NC(=O)c2cnn3cccnc23)c(-c2cc(SC(CF)CF)ccc2OC(F)F)n1` [Example 159, N-[3-[2-(difluoromethoxy)-5-[(1,3-difluoropropan-2-yl)sulfanyl]phenyl]-1-methyl-1H-pyrazol-4-yl]pyrazolo[1,5-a]pyrimidine-3-carboxamide], the pKi was 9.80 in assay [1] and 10.01 in assay [2]. Moreover, in assay [3], the pIC50 is 8.41.
Turning to `O=C(Nc1c[nH]nc1-c1cc(SC2CC2)ccc1OC(F)F)c1cnn2cccnc12` [Example 160, N-[3-[5-(cyclopropylsulfanyl)-2-(difluoromethoxy)phenyl]-1H-pyrazol-4-yl]pyrazolo[1,5-a]pyrimidine-3-carboxamide], the results for the pKi in assay [1] and in assay [2] were 10.01 and 10.25, respectively. Moreover, the pIC50 in assay [3] was 8.14.
Turning to `O=C(Nc1cn(CC(=O)N2CCC(N3CCOCC3)CC2)nc1-c1cc(SC2CC2)ccc1OC(F)F)c1cnn2cccnc12` [Example 161, N-[3-[5-cyclopropylsulfanyl-2-(difluoromethoxy)phenyl]-1-[2-(4-morpholino-1-piperidyl)-2-oxo-ethyl]pyrazol-4-yl]pyrazolo[1,5-a]pyrimidine-3-carboxamide], the pKi in assay [1] was 9.52; in assay [2] it was 9.19. For the same compound, the pIC50 in assay [3] was 7.80.
On to `O=C(Nc1cn(CC(=O)N2CCC(CN3CCOCC3)CC2)nc1-c1cc(SC2CC2)ccc1OC(F)F)c1cnn2cccnc12` [Example 162, N-[3-[5-cyclopropylsulfanyl-2-(difluoromethoxy)phenyl]-1-[2-[4-(morpholinomethyl)-1-piperidyl]-2-oxo-ethyl]pyrazol-4-yl]pyrazolo[1,5-a]pyrimidine-3-carboxamide], for which the results for the negative-log Ki (pKi) in assay [1] and in assay [2] were 9.38 and 9.01, respectively. Further, the negative-log IC50 (pIC50) in assay [3] was 7.82.
In the case of `O=C(Nc1cn(CC(=O)N2CCN(CCN3CCOCC3)CC2)nc1-c1cc(SC2CC2)ccc1OC(F)F)c1cnn2cccnc12` [Example 163, N-[3-[5-(cyclopropylsulfanyl)-2-(difluoromethoxy)phenyl]-1-(2-[4-[2-(morpholin-4-yl)ethyl]piperazin-1-yl]-2-oxoethyl)-1H-pyrazol-4-yl]pyrazolo[1,5-a]pyrimidine-3-carboxamide], the pKi in assay [1] was 9.37; in assay [2], 9.03. Moreover, the pIC50 in assay [3] is 7.62.
On to `CN1CCN(C2CCN(C(=O)Cn3cc(NC(=O)c4cnn5cccnc45)c(-c4cc(SC5CC5)ccc4OC(F)F)n3)CC2)CC1` [Example 164, N-[3-[5-cyclopropylsulfanyl-2-(difluoromethoxy)phenyl]-1-[2-[4-(4-methylpiperazin-1-yl)-1-piperidyl]-2-oxo-ethyl]pyrazol-4-yl]pyrazolo[1,5-a]pyrimidine-3-carboxamide], for which the values for the pKi in assay [1] and in assay [2] were 9.26 and 8.82, respectively. Further, in assay [3], the pIC50 was 7.49.
Consider `O=C(Nc1cn(CC(=O)N2CCN(CC3CCOCC3)CC2)nc1-c1cc(SC2CC2)ccc1OC(F)F)c1cnn2cccnc12` [Example 165, N-[3-[5-cyclopropylsulfanyl-2-(difluoromethoxy)phenyl]-1-[2-oxo-2-[4-(tetrahydropyran-4-ylmethyl)piperazin-1-yl]ethyl]pyrazol-4-yl]pyrazolo[1,5-a]pyrimidine-3-carboxamide], for which the pKi in assay [1] was 9.40; in assay [2] it was 9.17. Further, the pIC50 in assay [3] is 7.70.
Regarding `N#CC1(CNC2CCN(C(=O)Cn3cc(NC(=O)c4cnn5cccnc45)c(-c4cc(SC5CC5)ccc4OC(F)F)n3)CC2)CC1` [Example 166, N-[1-[2-[4-[(1-cyanocyclopropyl)methylamino]-1-piperidyl]-2-oxo-ethyl]-3-[5-cyclopropylsulfanyl-2-(difluoromethoxy)phenyl]pyraxol-4-yl]pyrazolo[1,5-a]pyrimidine-3-carboxamide], the pKi was 9.54 in assay [1] and 9.14 in assay [2]. For the same compound, the pIC50 in assay [3] is 7.77.
Consider `CC(C)(C#N)CNC1CCN(C(=O)Cn2cc(NC(=O)c3cnn4cccnc34)c(-c3cc(SC4CC4)ccc3OC(F)F)n2)CC1` [Example 167, N-[1-(2-[4-[(2-cyano-2,2-dimethylethyl)amino]piperidin-1-yl]-2-oxoethyl)-3-[5-(cyclopropylsulfanyl)-2-(difluoromethoxy)phenyl]-1H-pyrazol-4-yl]pyrazolo[1,5-a]pyrimidine-3-carboxamide], for which the pKi is 9.55 in assay [1] and 9.17 in assay [2]. Moreover, the pIC50 in assay [3] was 7.96.
With `O=C(Nc1cn(CC(=O)N2CCN(C3CCOCC3)CC2)nc1-c1cc(SC2CC2)ccc1OC(F)F)c1cnn2cccnc12` [Example 168, N-[3-[5-cyclopropylsulfanyl-2-(difluoromethoxy)phenyl]-1-[2-oxo-2-(4-tetrahydropyran-4-ylpiperazin-1-yl)ethyl]pyrazol-4-yl]pyrazolo[1,5-a]pyrimidine-3-carboxamide], the pKi in assay [1] was 9.54; in assay [2], 9.34. In assay [3], the pIC50 is 7.85.
Take `CC(F)(F)CNC1CCN(C(=O)Cn2cc(NC(=O)c3cnn4cccnc34)c(-c3cc(SC4CC4)ccc3OC(F)F)n2)CC1` [Example 169, N-[3-[5-cyclopropylsulfanyl-2-(difluoromethoxy)phenyl]-1-[2-[4-(2,2-difluoropropylamino)-1-piperidyl]-2-oxo-ethyl]pyrazol-4-yl]pyrazolo[1,5-a]pyrimidine-3-carboxamide]: the pKi in assay [1] was 9.37; in assay [2], 9.10. The pIC50 in assay [3] was 7.70.
For `CN(C)C(=O)CN1CCN(CC2CCN(C(=O)Cn3cc(NC(=O)c4cnn5cccnc45)c(-c4cc(SC5CC5)ccc4OC(F)F)n3)CC2)CC1` [Example 170, N-[3-[5-cyclopropylsulfanyl-2-(difluoromethoxy)phenyl]-1-[2-[4-[[4-[2-(dimethylamino)-2-oxo-ethyl]piperazin-1-yl]methyl]-1-piperidyl]-2-oxo-ethyl]pyrazol-4-yl]pyrazolo[1,5-a]pyrimidine-3-carboxamide], in that order: 9.41, 9.11 and 7.60.
For `CN(C1CCN(C(=O)Cn2cc(NC(=O)c3cnn4cccnc34)c(-c3cc(SC4CC4)ccc3OC(F)F)n2)CC1)C1COC1` [Example 171, N-[3-[5-cyclopropylsulfanyl-2-(difluoromethoxy)phenyl]-1-[2-[4-[methyl(oxetan-3-yl)amino]-1-piperidyl]-2-oxo-ethyl]pyrazol-4-yl]pyraxolo[1,5-a]pyrimidine-3-carboxamide], the results for the pKi in assay [1] and in assay [2] were 9.37 and 9.11, respectively. In addition, in assay [3], the pIC50 is 7.66.
Consider `CC(=O)N1CCN(CC2CCN(C(=O)Cn3cc(NC(=O)c4cnn5cccnc45)c(-c4cc(SC5CC5)ccc4OC(F)F)n3)CC2)CC1` [Example 172, N-[1-[2-[4-[(4-acetylpiperazin-1-yl)methyl]-1-piperidyl]-2-oxo-ethyl]-3-[5-cyclopropylsulfanyl-2-(difluoromethoxy)phenyl]pyrazol-4-yl]pyrazolo[1,5-a]pyrimidine-3-carboxamide], for which the values for the pKi in assay [1] and in assay [2] were 9.35 and 9.04, respectively. For the same compound, the pIC50 in assay [3] was 7.49.
